# Experiments:
# [1] = test system: Adherent HEK293 cells; test: rAAV yield in adherent HEK293 cells in T75 flasks, capsid particle AAV8 ELISA; assay type: cell-based, human; conditions: supernatant, vs control condition
# Description: (§1) Adherent HEK293 cell line (Agilent Technologies CAT #240073, Lot #0006218516) was cultivated in T75 flasks in a total volume of 23 mL with DMEM media containing 2% FCS. The cultivation of the cells was performed in an incubator at +37° C. and 5% CO2. 1 mM Ruxolitnib stock solution was prepared by dissolving the solid white powder in DMSO according to the manufacturer's instructions before use and stored at −20° C. During the last passage before transfection Ruxolitinib was added to the cell culture at defined concentrations. Every condition was tested in duplicates. At transfection day a confluence range of 60 to 80% was achieved.
# (§2) The statistical mean of the control condition was calculated as 100%.
# [2] = test system: Adherent HEK293 cells; test: rAAV yield in adherent HEK293 cells in T75 flasks, ddPCR; assay type: cell-based, human; conditions: supernatant, vs control condition (100%)
# Description: as §1, §2
# [3] = test system: HEK293 cells; test: rAAV yield in 10 L bioreactor fermentation of HEK293 cells, ddPCR; assay type: cell-based, human; conditions: supernatant
# Excerpt: (§3) To test the effect of IFN inhibitor on the rAAV yield in large-scale bioreactor fermentation of HEK293 cells, 10 L bioreactors have been used. The results are shown in FIG. 3A (determination by capsid particlerAAV8 ELISA) and FIG. 3B (determination by ddPCR).
# [4] = test system: HEK293 cells (CL1); test: rAAV8 yield in suspension HEK293 (CL1) shaker flasks, vector genome ddPCR
# [5] = test system: HEK293 cells (CL1); test: rAAV8 yield in suspension HEK293 (CL1) shaker flasks, capsid particle AAV8 ELISA
# Description: The commercially available enzyme-linked immunosorbent assay (ELISA; Progen AAV8 titration ELISA kit, cat. No. PRAAV8) uses a monoclonal antibody (ADK8) specific for a conformational epitope on assembled AAV8 capsids. This plate-immobilized antibody captures rAAV-8 particles from the specimen. Captured particles are then detected by the binding of biotinylated anti-AAV8 ADK8 since epitope targeted is repeatedly expressed on the assembled AAV8 capsid. Streptavidin peroxidase and a peroxidase substrate is then used for measuring bound anti-AAV8 and thus the concentration of AAV8 capsid. The color reaction was measured photometrically at 450 nm. The kit contains an rAAV2/8 particle preparation as calibration standard with a labelled rAAV8 particle concentration.
# [6] = test system: suspension HEK293 (CL1); test: Lentivirus production in suspension HEK293 (CL1) shake flasks, p24 ELISA; assay type: cell-based, human; conditions: vs untreated control (100%)
# Description: Transient transfection of HEK293 to produce Lentivirus was performed with pALDI-Lenti system (Aldevron). […]. The transfection mix consisted of the four-plasmid system, DMEM media and PEI as transfection reagent. The ratio between the used plasmids was 1:1:1:1 and the plasmid DNA PEI ration was 1:3.
# The ELISA quantifies structural HIV1 p24 capsid protein amount in cell culture and supernatant samples. It is a quantitative sandwich ELISA method. For titering lentiviral expression HIV1 p24 ELISA Kit ab218268 was used. To discriminate between viral p24 produced by lentivirus and associated p24 produced by HEK293 cells Cell Biolabs Quick Titer™ Kit including LV-Origine/TR30021/Lot #134641F and the Cell Biolabs Reference Standard #310809 was used. The virus pulldown technology ensures detection of lentiviral associated p24 only.
# The suspension HEK293 (CL1) experiments with a four-plasmid lentiviral transfection were performed in shake flasks with the same conditions as shown in Table 2. The statistical mean of the control condition was evaluated as 100%.
# [7] = test system: HEK293 cells; test: rAAV yield in 10 L bioreactor fermentation of HEK293 cells, rAAV8 capsid particle ELISA; assay type: cell-based, human; conditions: supernatant, vs negative control without inhibitor
# Excerpt: as §3
compound,measurement,setting,value
"N#CC[C@H](C1CCCC1)n1cc(-c2ncnc3[nH]ccc23)cn1 [Ruxolitinib, (3R)-3-cyclopentyl-3-[4-(7H-pyrrolo[2,3-d]pyrimidin-4-yl)pyrazol-1-yl]propanenitrile]",capsid particle yield increase (ELISA),[1]; 1 μM inhibitor,49%
same,capsid particle yield increase (ELISA),[1]; 5 μM inhibitor,66.5%
same,capsid particle titer increase (ELISA),[1]; 10 μM inhibitor,62%
same,vg yield increase (ddPCR),[2]; 1 μM inhibitor,48%
same,vg yield increase (ddPCR),[2]; 5 μM inhibitor,38.5%
same,vg yield increase (ddPCR),[2]; 10 μM inhibitor,31%
same,improvement of rAAV yield by ddPCR,[3],approximately 1.3 fold
same,rAAV yield in the cell suspension,"[4]; 5 μM ruxolitinib, cell suspension",about 2×10^13 vg/L cell culture
same,rAAV yield in the cell suspension,"[4]; 10 μM ruxolitinib, cell suspension",about 2×10^13 vg/L cell culture
same,increase of the vector genome (vg) in the cell suspension,"[4]; 10 μM ruxolitinib, cell suspension, vs negative control without inhibitor",about 2 fold
same,increase of the vector genome (vg) in the supernatant,"[4]; 10 μM ruxolitinib, supernatant, vs negative control without inhibitor",about 2.5 fold
same,effect on rAAV yield at higher concentrations,[5]; concentrations higher than 10 μM,reduction of the effect
same,increase of rAAV yield as determined in cell suspension,"[5]; optimal concentration 5 μM, vs yield in absence of inhibitor",about 3 fold
same,lentiviral cp titer increase (p24 ELISA),[6]; 5 μM inhibitor,40%
same,lentiviral cp titer increase (p24 ELISA),[6]; 10 μM inhibitor,81.5%
same,improvement of rAAV8 capsid particles by ELISA,[7],about 1.5 fold

# Reference: patent publication US20260242822A1, “METHODS AND KITS FOR THE IMPROVED FERMENTATIVE PRODUCTION OF A RECOMBINANT VIRUS” (priority 2022, published 2026)
